Experimental data published in patent US20250188033A1, “INHIBITOR OF REPLICATION PROTEIN A1 OF TRYPANOSOMA BRUCEI AND METHOD OF USE THEREOF” (Research Foundation of the City University of New York, published 2025).

Test system: Trypanosoma brucei
Assay: ALAMARBLUE cell viability / growth assay of T. brucei cells
Assay type: cell-based
Conditions: T. brucei, 72 hours, normalized to DMSO control
Protocol: To determine cell growth rate, WT and two TbRPA1 RNAi KD strains (KD1 and KD2) were seeded at a density of 1×10^5 cells/ml and cultured with or without tetracycline for the induction of RNAi. Cells were counted every 12 hours for 2 days. To determine the viability of TbRPA1-depleted cells, ALAMARBLUE® assay (Thermo Fisher, an established colorimetric technique that detects metabolically active cells) was used. Cells from each time point were incubated with ALAMARBLUE® dye for 4-6 hours and percentage of live cells was determined by measuring resorufin converted from resazurin by reducing environment of live cells. Synergy H1 microplate reader (BioTek) was used with 560/590 nm (excitation/emission) filter settings and Relative Fluorescence Unit (RFU) values were obtained. The percentage of viable cells were calculated from the RFU values.
The initial assessment of JC-229's inhibitory effect on T. brucei cell growth was performed at 50 μM concentration. Trypanosome cells were seeded at 1×10^3 cells/ml density in 180 μl in a 96-well culture plate in triplicate. These cells were incubated with 50 μM JC-229 for 24, 48, and 72 hours. DMSO was used as a vehicle control at 0.0075%. JC-229-treated culture and control cultures were analyzed with the ALAMARBLUE® dye as described above.
To obtain the EC50 value of JC-229, T. brucei cells were seeded at 1×10^3 cells/ml density in 180 μl in a 96-well culture plate in triplicate. These cells were incubated for 72 hours with increasing concentrations of JC-229, (0.5 μM to 50 μM) and cell viability was determined using the ALAMARBLUE® dye as described above.
Trypanosoma brucei cytotoxicity of JC-229 and analogs were measured using ALAMARBLUE® assay (Rampersad, S. N. Multiple applications of ALAMARBLUE® as an indicator of metabolic function and cellular health in cell viability bioassays. Sensors (Basel) 12, 12347-12360 (2012). Trypanosome cells were seeded at 1×10^3 cells/ml density in 180 μl in a 96-well culture plate in triplicate. These cells were incubated with indicated concentration of JC compounds for 72 hours. DMSO was used as a vehicle control at 0.0075%. JC compound-treated cultures were then incubated with ALAMARBLUE® dye for 4-6 hours and percentage of live cells was determined using Synergy H1 microplate reader (BioTek) with 560/590 nm (excitation/emission) filter settings and Relative Fluorescence Unit (RFU) values were obtained. The percentage of viable cells were calculated from the RFU values by normalizing to DMSO treated control. In one embodiment, the inhibitor is characterized in that it provides at least 50%, at least 80% or at least 90% inhibition at a concentration of 5 μM when tested in accordance with the above conditions.

## Cc1ccc(C(=O)Nc2ccc(Cl)c(Cl)c2)cc1S(=O)(=O)N1CCC(NS(=O)(=O)c2cccc(F)c2)CC1 [JC-1012]
2 μM
  % Inhibition @2 μM: 36%
5 μM
  % Inhibition @5 μM: 97%

## Cc1ccc(C(=O)Nc2ccc(Cl)c(Cl)c2)cc1S(=O)(=O)NCCCNC(=O)Cc1ccccc1 [JC-934]
2 μM
  % Inhibition @2 μM: 11%
  % Inhibition @10 μM: 34%

## Cc1ccc(C(=O)Nc2ccc(Cl)c(Cl)c2)cc1S(=O)(=O)NCCNC(=S)Nc1ccc(C(F)(F)F)cc1 [JC-1003]
2 μM
  % Inhibition @2 μM: 0%
5 μM
  % Inhibition @5 μM: 80%

## Cc1ccc(C(=O)Nc2ccc(Cl)c(Cl)c2)cc1S(=O)(=O)NCCNC(=S)Nc1cccc(C(F)(F)F)c1 [JC-1000]
2 μM
  % Inhibition @2 μM: 21%
5 μM
  % Inhibition @5 μM: 58%

## Cc1ccc(C(=O)Nc2ccc(Cl)c(Cl)c2)cc1S(=O)(=O)NCCNS(=O)(=O)c1cccc(F)c1 [JC-996]
2 μM
  % Inhibition @2 μM: −19%
5 μM
  % Inhibition @5 μM: 69%

## Cc1ccc(C(=O)Nc2ccc(Cl)c(Cl)c2)cc1S(=O)(=O)N1CCCC(N)C1.O=C(O)C(F)(F)F (stereo not drawn) [JC-959]
2 μM
  % Inhibition @2 μM: 64%
5 μM
  % Inhibition @5 μM: 100%

## Cc1ccc(C(=O)Nc2ccc(Cl)c(Cl)c2)cc1S(=O)(=O)N1CCCC(NC(=O)OC(C)(C)C)C1 (stereo not drawn) [JC-962]
2 μM
  % Inhibition @2 μM: 36%
5 μM
  % Inhibition @5 μM: 100%

## Cc1ccc(C(=O)Nc2ccc(Cl)c(Cl)c2)cc1S(=O)(=O)NCc1cccc2ccccc12 [JC-887]
2 μM
  % Inhibition @2 μM: −9%
  % Inhibition @10 μM: 14%

## Cc1ccc(C(=O)Nc2ccc(Cl)c(Cl)c2)cc1S(=O)(=O)Nc1cc(C(C)C)n[nH]1 [JC-888]
2 μM
  % Inhibition @2 μM: 16%
5 μM
  % Inhibition @5 μM: 62.1%
  % Inhibition @10 μM: 100%

## Cc1ccc(C(=O)Nc2ccc(Cl)c(Cl)c2)cc1S(=O)(=O)N1CCC(NS(=O)(=O)c2ccc(COc3ccccc3)cc2)CC1 [JC-1013]
2 μM
  % Inhibition @2 μM: 13%
5 μM
  % Inhibition @5 μM: −9%

## Cc1ccc(C(=O)Nc2ccc(Cl)c(Cl)c2)cc1S(=O)(=O)NCCNC(=O)Cc1ccccc1 [JC-953]
2 μM
  % Inhibition @2 μM: −34%
5 μM
  % Inhibition @5 μM: 32%

## Cc1ccc(C(=O)N2CCOCC2)cc1S(=O)(=O)Nc1ccc(Cl)c(Cl)c1 [JC-867]
2 μM
  % Inhibition @2 μM: −14%
  % Inhibition @10 μM: 31%

## COc1ccc(NC(=S)NC2CCN(S(=O)(=O)c3cc(C(=O)Nc4ccc(Cl)c(Cl)c4)ccc3C)CC2)cc1 [JC-1016]
2 μM
  % Inhibition @2 μM: 52%
5 μM
  % Inhibition @5 μM: 100%

## Cc1ccc(C(=O)Nc2ccc(Cl)c(Cl)c2)cc1S(=O)(=O)NCCNC(=S)Nc1ccc(Cl)c(Cl)c1 [JC-1002]
2 μM
  % Inhibition @2 μM: 34%
5 μM
  % Inhibition @5 μM: 100%

## Cc1ccc(C(=O)N[C@@H](Cc2ccccc2)C(N)=O)cc1S(=O)(=O)Nc1ccc(Cl)c(Cl)c1 [JC-862]
2 μM
  % Inhibition @2 μM: −19%
  % Inhibition @10 μM: 27%

## Cc1ccc(C(=O)Nc2ccc(Cl)c(Cl)c2)cc1S(=O)(=O)NC(CO)(CO)CO [JC-893]
2 μM
  % Inhibition @2 μM: 2%
  % Inhibition @10 μM: −5%

## COc1ccc(NC(=S)NC2CCCN(S(=O)(=O)c3cc(C(=O)Nc4ccc(Cl)c(Cl)c4)ccc3C)C2)cc1 (stereo not drawn) [JC-1004]
2 μM
  % Inhibition @2 μM: 32%
5 μM
  % Inhibition @5 μM: 94%

## Cc1ccc(C(=O)Nc2ccc(Cl)c(Cl)c2)cc1S(=O)(=O)N1CCC(NC(=O)CCc2ccccc2)CC1 [JC-968]
2 μM
  % Inhibition @2 μM: 1%
5 μM
  % Inhibition @5 μM: 5%

## Cc1ccc(C(=O)Nc2ccc(Cl)c(Cl)c2)cc1S(=O)(=O)N1CCCC(NC(=S)Nc2ccc(F)cc2)C1 (stereo not drawn) [JC-965]
2 μM
  % Inhibition @2 μM: 64%
5 μM
  % Inhibition @5 μM: 100%

## Cc1ccc(C(=O)Nc2ccc(Cl)c(Cl)c2)cc1S(=O)(=O)C1CCCNC1.O=C(O)C(F)(F)F (stereo not drawn) [JC-951]
2 μM
  % Inhibition @2 μM: 29%
5 μM
  % Inhibition @5 μM: 100%

## O=C(Nc1ccc(Cl)c(Cl)c1)c1ccc(Cl)c(S(=O)(=O)Nc2ccc(Cl)c(Cl)c2)c1 [JC-853]
2 μM
  % Inhibition @2 μM: −17%
  % Inhibition @10 μM: 81%

## Cc1ccc(C(=O)Nc2ccc(Cl)c(Cl)c2)cc1S(=O)(=O)N1CCCC(NC(=S)Nc2cccc(C(F)(F)F)c2)C1 (stereo not drawn) [JC-1005]
2 μM
  % Inhibition @2 μM: 100%
5 μM
  % Inhibition @5 μM: 100%

## Cc1ccc(C(=O)Nc2ccc(Cl)c(Cl)c2)cc1S(=O)(=O)N1CCC(NC(=O)c2ccccc2)CC1 [JC-966]
2 μM
  % Inhibition @2 μM: 13%
5 μM
  % Inhibition @5 μM: 0%

## Cc1ccc(C(=O)Nc2ccc(Cl)c(Cl)c2)cc1S(=O)(=O)Nc1cc(C(F)(F)F)n[nH]1 [JC-874]
2 μM
  % Inhibition @2 μM: 1%
5 μM
  % Inhibition @5 μM: 51.8%
  % Inhibition @10 μM: 97%

## Cc1ccc(C(=O)Nc2ccc(Cl)c(Cl)c2)cc1S(=O)(=O)Nc1ccc(C#N)cc1N [JC-889]
2 μM
  % Inhibition @2 μM: −3%
  % Inhibition @10 μM: −11%

## Cc1ccc(C(=O)Nc2ccc(Cl)c(Cl)c2)cc1S(=O)(=O)NCCNS(=O)(=O)c1cccc(Br)c1 [JC-994]
2 μM
  % Inhibition @2 μM: −17%
5 μM
  % Inhibition @5 μM: 61%

## Cc1ccc(C(=O)Nc2ccc(Cl)c(Cl)c2)cc1S(=O)(=O)N1CCC(NC(=S)Nc2ccc(C(F)(F)F)cc2)CC1 [JC-1020]
2 μM
  % Inhibition @2 μM: 100%
5 μM
  % Inhibition @5 μM: 100%

## Cc1ccc(C(=O)Nc2ccc(Cl)c(Cl)c2)cc1S(=O)(=O)N1CCCC(N)C1.O=C(O)C(F)(F)F (stereo not drawn) [JC-929]
2 μM
  % Inhibition @2 μM: 5%
5 μM
  % Inhibition @5 μM: 99.7%
  % Inhibition @10 μM: 100%

## Cc1ccc(C(=O)Nc2ccc(Cl)c(Cl)c2)cc1S(=O)(=O)C1CCC(NC(=O)OC(C)(C)C)CC1 (stereo not drawn) [JC-924]
2 μM
  % Inhibition @2 μM: −2%
5 μM
  % Inhibition @5 μM: 99.4%
  % Inhibition @10 μM: 100%

## Cc1ccc(C(=O)Nc2ccc(Cl)c(Cl)c2)cc1S(=O)(=O)NC1CC(N)C1 (stereo not drawn) [JC-957]
2 μM
  % Inhibition @2 μM: −30%
5 μM
  % Inhibition @5 μM: 84%

## Cc1ccc(C(=O)Nc2ccc(Cl)c(Cl)c2)cc1S(=O)(=O)N1CCC(NC(=S)Nc2ccc(F)cc2)CC1 [JC-970]
Trypanosoma brucei, 2 μM
  inhibition at 2 µM: 100%
Trypanosoma brucei, 5 μM
  inhibition at 5 µM: 100%

## Cc1ccc(C(=O)Nc2ccc(Cl)c(Cl)c2)cc1S(=O)(=O)C1CCC(NC(=O)c2ccccc2)CC1 (stereo not drawn) [JC-927]
2 μM
  % Inhibition @2 μM: 0%
5 μM
  % Inhibition @5 μM: 42.4%
  % Inhibition @10 μM: 100%

## Cc1ccc(C(=O)Nc2ccc(Cl)c(Cl)c2)cc1S(=O)(=O)NCCCCCCO [JC-898]
2 μM
  % Inhibition @2 μM: 6%
  % Inhibition @10 μM: 57%

## Cc1ccc(C(=O)Nc2ccc(Cl)c(Cl)c2)cc1S(=O)(=O)NNc1ccccc1 [JC-868]
2 μM
  % Inhibition @2 μM: 1%
  % Inhibition @10 μM: 20%

## Cc1ccc(C(=O)Nc2ccc(Cl)c(Cl)c2)cc1S(=O)(=O)N1CCC(NS(=O)(=O)c2ccc(CBr)cc2)CC1 [JC-1009]
2 μM
  % Inhibition @2 μM: 99%
5 μM
  % Inhibition @5 μM: 100%

## Cc1ccc(C(=O)Nc2ccc(Cl)c(Cl)c2)cc1S(=O)(=O)N1CCC(NS(=O)(=O)c2cccc(Br)c2)CC1 [JC-1010]
2 μM
  % Inhibition @2 μM: 9%
5 μM
  % Inhibition @5 μM: −15%

## Cc1ccc(C(=O)Nc2ccc(Cl)c(Cl)c2)cc1S(=O)(=O)NCCc1ccccc1 [JC-854]
2 μM
  % Inhibition @2 μM: −27%
  % Inhibition @10 μM: 14%

## Cc1ccc(C(=O)Nc2ccc(Cl)c(Cl)c2)cc1S(=O)(=O)N(CCCCO)Cc1ccccc1 [JC-891]
2 μM
  % Inhibition @2 μM: 13%
5 μM
  % Inhibition @5 μM: 88.8%
  % Inhibition @10 μM: 100%

## Cc1ccc(C(=O)Nc2ccc(Cl)c(Cl)c2)cc1S(=O)(=O)N1CCCC(NS(C)(=O)=O)C1 (stereo not drawn) [JC-964]
2 μM
  % Inhibition @2 μM: −16%
5 μM
  % Inhibition @5 μM: −23%

## CC(=O)NCCNS(=O)(=O)c1cc(C(=O)Nc2ccc(Cl)c(Cl)c2)ccc1C [JC-919]
2 μM
  % Inhibition @2 μM: −10%
  % Inhibition @10 μM: 18%

## Cc1ccc(C(=O)Nc2ccc(Cl)c(Cl)c2)cc1S(=O)(=O)NCCN.O=C(O)C(F)(F)F [JC-918]
2 μM
  % Inhibition @2 μM: −20%
  % Inhibition @10 μM: 56%

## Cc1ccc(C(=O)Nc2ccc(Cl)c(Cl)c2)cc1S(=O)(=O)NC1CC(NC(=O)OC(C)(C)C)C1 (stereo not drawn) [JC-956]
2 μM
  % Inhibition @2 μM: −32%
5 μM
  % Inhibition @5 μM: 19%

## O=C(Nc1ccc(Cl)c(Cl)c1)c1ccc(Br)c(S(=O)(=O)Nc2ccc(Cl)c(Cl)c2)c1 [JC-855]
2 μM
  % Inhibition @2 μM: −5%
  % Inhibition @10 μM: 89%

## Cc1ccc(C(=O)Nc2ccc(Cl)c(Cl)c2)cc1S(=O)(=O)N1CCOCC1 [JC-885]
2 μM
  % Inhibition @2 μM: 13%
  % Inhibition @10 μM: 38%

## Cc1ccc(C(=O)NCCc2ccccc2)cc1S(=O)(=O)Nc1ccc(Cl)c(Cl)c1 [JC-859]
2 μM
  % Inhibition @2 μM: 13%
  % Inhibition @10 μM: 9%
